Data: patent publication US8975398B2, “NAMPT inhibitors” (AbbVie Inc., priority 2012, dated 2015)

system: PC3 cells; test: NAMPT Cell Proliferation Assay (Cell Titer Glo; also performed in the presence of 0.3 mM nicotinamide mononucleotide); format: cell-based; conditions: Homo sapiens, PC-3, 120 h, 5 days incubation, cell viability by Cell Titer Glo
Summary of the method: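 IC50 values derive from sigmoidal dose-response fits of percent inhibition of PC3 viability, measured by luminescence after 5 days of compound treatment. Cells (500/well, RPMI containing 10% heat-inactivated FBS) are allowed to attach overnight, and compounds are tested at 10-fold dilutions between 10 μM and 1×10^−5 μM.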

First: O=C(N[C@H]1CCN(c2cccnn2)C1)c1ccc(C2CCN(C(=O)CC3CC4CCC3C4)CC2)s1 (stereo partly drawn) [Example 1019, 5-[1-(bicyclo[2.2.1]hept-2-ylacetyl)piperidin-4-yl]-N-[(3S)-1-(pyridazin-3-yl)pyrrolidin-3-yl]thiophene-2-carboxamide]
Second: CC1(C(=O)N2CCC(c3ccc(C(=O)N[C@H]4CCN(c5cccnn5)C4)s3)CC2)CC1 [Example 1016, 5-{1-[(1-methylcyclopropyl)carbonyl]piperidin-4-yl}-N-[(3S)-1-(pyridazin-3-yl)pyrrolidin-3-yl]thiophene-2-carboxamide]
The IC50 of the first is 12-fold higher: 2460 nM for the first, 212 nM for the second. The second is the more potent here.

`O=C(Nc1ccccc1F)c1ccc(NC(=O)C2CN(c3cccnn3)C2)cc1` [Example 1010, N-{4-[(2-fluorophenyl)carbamoyl]phenyl}-1-(pyridazin-3-yl)azetidine-3-carboxamide] and `O=C(Nc1cccc(F)c1)c1ccc(NC(=O)C2CN(c3cccnn3)C2)cc1` [Example 1007, N-{4-[(3-fluorophenyl)carbamoyl]phenyl}-1-(pyridazin-3-yl)azetidine-3-carboxamide] are within 1.5-fold of each other in IC50: 70.9 nM for the first, 56.7 nM for the second.

Compared with `COCC(C)(C)CNC(=O)c1ccc(NC(=O)C2CN(c3cccnn3)C2)cc1` [Example 974, N-{4-[(3-methoxy-2,2-dimethylpropyl)carbamoyl]phenyl}-1-(pyridazin-3-yl)azetidine-3-carboxamide], `COC(C)(C)CNC(=O)c1ccc(NC(=O)C2CN(c3cccnn3)C2)cc1` [Example 994, N-{4-[(2-methoxy-2-methylpropyl)carbamoyl]phenyl}-1-(pyridazin-3-yl)azetidine-3-carboxamide] is 7.5-fold higher in IC50: 7.84 nM for the first, 59 nM for the second.

First: CC1(NC(=O)c2ccc(NC(=O)C3CN(c4cccnn4)C3)cc2)CC1 [Example 993, N-{4-[(1-methylcyclopropyl)carbamoyl]phenyl}-1-(pyridazin-3-yl)azetidine-3-carboxamide]
Second: CC1(CNC(=O)c2ccc(NC(=O)C3CN(c4cccnn4)C3)cc2)COC1 [Example 999, N-(4-{[(3-methyloxetan-3-yl)methyl]carbamoyl}phenyl)-1-(pyridazin-3-yl)azetidine-3-carboxamide]
The IC50 of the first is 3.2-fold higher: 809 nM for the first, 250 nM for the second. The second is the more potent here.

`O=C(NC1CCOCC1)c1ccc(NC(=O)C2CN(c3cccnn3)C2)cc1` [Example 1002, 1-(pyridazin-3-yl)-N-[4-(tetrahydro-2H-pyran-4-ylcarbamoyl)phenyl]azetidine-3-carboxamide] and `CN1CCCC(NC(=O)c2ccc(NC(=O)C3CN(c4cccnn4)C3)cc2)C1` (stereo not drawn) [Example 998, N-{4-[(1-methylpiperidin-3-yl)carbamoyl]phenyl}-1-(pyridazin-3-yl)azetidine-3-carboxamide] are within 1.5-fold of each other in IC50: 911 nM for the first, 1280 nM for the second.

`CC(C)C(=O)N1CCC(Cc2ccc(NC(=O)C3CN(c4cccnn4)C3)cc2)CC1` [Example 901, N-(4-{[1-(2-methylpropanoyl)piperidin-4-yl]methyl}phenyl)-1-(pyridazin-3-yl)azetidine-3-carboxamide] and `CCC(=O)N1CCC(Cc2ccc(NC(=O)C3CN(c4cccnn4)C3)cc2)CC1` [Example 958, N-{4-[(1-propanoylpiperidin-4-yl)methyl]phenyl}-1-(pyridazin-3-yl)azetidine-3-carboxamide] are within 1.5-fold of each other in IC50: 2.07 nM for the first, 2.63 nM for the second.

First: CCCNC(=O)c1ccc(NC(=O)C2CN(c3cccnn3)C2)cc1 [Example 1008, N-[4-(propylcarbamoyl)phenyl]-1-(pyridazin-3-yl)azetidine-3-carboxamide]
Second: O=C(NCCC(F)(F)F)c1ccc(NC(=O)C2CN(c3cccnn3)C2)cc1 [Example 997, 1-(pyridazin-3-yl)-N-{4-[(3,3,3-trifluoropropyl)carbamoyl]phenyl}azetidine-3-carboxamide]
The IC50 of the first is 3.2-fold higher: 299 nM for the first, 93.5 nM for the second. The second is the more potent here.

Compared with `Cc1ccc(N2CC(C(=O)Nc3ccc(-c4cnn(CC(C)(C)C)c4)cc3)C2)nn1` [Example 878, N-{4-[1-(2,2-dimethylpropyl)-1H-pyrazol-4-yl]phenyl}-1-(6-methylpyridazin-3-yl)azetidine-3-carboxamide], `CC(C)(C)Cn1cc(-c2ccc(NC(=O)C3CN(c4ccc(Cl)nn4)C3)cc2)cn1` [Example 875, 1-(6-chloropyridazin-3-yl)-N-{4-[1-(2,2-dimethylpropyl)-1H-pyrazol-4-yl]phenyl}azetidine-3-carboxamide] is higher in IC50: 70.6 nM for the first, > 10000 nM for the second. The first is the more potent here.

Going from `O=C(Nc1ccc(C2CCN(C(=O)c3ccccc3F)CC2)nc1)C1CN(c2cccnn2)C1` [Example 914, N-{6-[1-(2-fluorobenzoyl)piperidin-4-yl]pyridin-3-yl}-1-(pyridazin-3-yl)azetidine-3-carboxamide] to `O=C(Nc1cnn(C2CCN(C(=O)c3ccccc3F)CC2)c1)C1CN(c2cccnn2)C1` [Example 971, N-{1-[1-(2-fluorobenzoyl)piperidin-4-yl]-1H-pyrazol-4-yl}-1-(pyridazin-3-yl)azetidine-3-carboxamide], the IC50 rises from 2.7 nM to 70.8 nM (26-fold).

`O=C(Nc1ccc(CC2CCN(C(=O)C3CCCCC3)CC2)cc1)C1CN(c2cccnn2)C1` [Example 965, N-(4-{[1-(cyclohexylcarbonyl)piperidin-4-yl]methyl}phenyl)-1-(pyridazin-3-yl)azetidine-3-carboxamide] and `O=C(Nc1ccc(CC2CCN(C(=O)CC3C[C@@H]4CC[C@H]3C4)CC2)cc1)C1CN(c2cccnn2)C1` (stereo partly drawn) [Example 933, N-[4-({1-[(1S,4R)-bicyclo[2.2.1]hept-2-ylacetyl]piperidin-4-yl}methyl)phenyl]-1-(pyridazin-3-yl)azetidine-3-carboxamide] are within 1.5-fold of each other in IC50: 2.6 nM for the first, 2.39 nM for the second.

`Cc1ccc(N2CC(C(=O)Nc3ccc(O[C@@H]4CCN(C(=O)c5cscn5)C4)cc3)C2)nn1` [Example 918, 1-(6-methylpyridazin-3-yl)-N-(4-{[(3R)-1-(1,3-thiazol-4-ylcarbonyl)pyrrolidin-3-yl]oxy}phenyl)azetidine-3-carboxamide] and `Cc1ccc(N2CC(C(=O)Nc3ccc(O[C@@H]4CCN(C(=O)C(C)C)C4)cc3)C2)nn1` [Example 916, N-(4-{[(3R)-1-(2-methylpropanoyl)pyrrolidin-3-yl]oxy}phenyl)-1-(6-methylpyridazin-3-yl)azetidine-3-carboxamide] are within 1.5-fold of each other in IC50: 717 nM for the first, 646 nM for the second.

First: O=C(Nc1ccc(CC2CCN(C(=O)c3ccco3)CC2)cc1)C1CN(c2cccnn2)C1 [Example 952, N-(4-{[1-(furan-2-ylcarbonyl)piperidin-4-yl]methyl}phenyl)-1-(pyridazin-3-yl)azetidine-3-carboxamide]
Second: O=C(Nc1ccc(CC2CCN(C(=O)c3ccno3)CC2)cc1)C1CN(c2cccnn2)C1 [Example 953, N-(4-{[1-(1,2-oxazol-5-ylcarbonyl)piperidin-4-yl]methyl}phenyl)-1-(pyridazin-3-yl)azetidine-3-carboxamide]
The IC50 of the first is 1.5-fold lower: 2.17 nM for the first, 3.34 nM for the second. The first is the more potent here.

Compared with `CC(C)(C)C(=O)N1CCC(c2ccc(NC(=O)C3CN(c4cccnn4)C3)cc2F)CC1` [Example 886, N-{4-[1-(2,2-dimethylpropanoyl)piperidin-4-yl]-3-fluorophenyl}-1-(pyridazin-3-yl)azetidine-3-carboxamide], `CC(C)C(=O)N1CCC(c2ccc(NC(=O)C3CN(c4cccnn4)C3)cc2F)CC1` [Example 880, N-{3-fluoro-4-[1-(2-methylpropanoyl)piperidin-4-yl]phenyl}-1-(pyridazin-3-yl)azetidine-3-carboxamide] is 2-fold higher in IC50: 7.66 nM for the first, 15.4 nM for the second. The first is the more potent here.

Compared with `CCC(C)(C)C(=O)N1CCC(c2ccc(C(=O)N[C@H]3CCN(c4cccnn4)C3)s2)CC1` [Example 1015, 5-[1-(2,2-dimethylbutanoyl)piperidin-4-yl]-N-[(3S)-1-(pyridazin-3-yl)pyrrolidin-3-yl]thiophene-2-carboxamide], `CC(C)(C)CC(=O)N1CCC(Cc2ccc(NC(=O)C3CN(c4cccnn4)C3)cc2)CC1` [Example 898, N-(4-{[1-(3,3-dimethylbutanoyl)piperidin-4-yl]methyl}phenyl)-1-(pyridazin-3-yl)azetidine-3-carboxamide] is 110-fold lower in IC50: 90.1 nM for the first, 0.851 nM for the second. The second is the more potent here.

Going from `Cn1cccc1C(=O)N1CCC(Cc2ccc(NC(=O)C3CN(c4cccnn4)C3)cc2)CC1` [Example 949, N-[4-({1-[(1-methyl-1H-pyrrol-2-yl)carbonyl]piperidin-4-yl}methyl)phenyl]-1-(pyridazin-3-yl)azetidine-3-carboxamide] to `O=C(Nc1ccc(CC2CCN(C(=O)c3ccccc3)CC2)cc1)C1CN(c2cccnn2)C1` [Example 895, N-{4[(1-benzoylpiperidin-4-yl)methyl]phenyl}-1-(pyridazin-3-yl)azetidine-3-carboxamide], the IC50 falls from 5.95 nM to 2.15 nM (2.8-fold).

First: O=C(Nc1ccc(C2CCN(C(=O)CC3CC3)CC2)c(F)c1)C1CN(c2cccnn2)C1 [Example 888, N-{4-[1-(cyclopropylacetyl)piperidin-4-yl]-3-fluorophenyl}-1-(pyridazin-3-yl)azetidine-3-carboxamide]
Second: CCOCC(=O)N1CCC(Cc2ccc(NC(=O)C3CN(c4cccnn4)C3)cc2)CC1 [Example 946, N-(4-{[1-(ethoxyacetyl)piperidin-4-yl]methyl}phenyl)-1-(pyridazin-3-yl)azetidine-3-carboxamide]
The IC50 of the first is 3.4-fold higher: 9.76 nM for the first, 2.89 nM for the second.

Compared with `O=C(NCC1CC1)c1ccc(NC(=O)C2CN(c3cccnn3)C2)cc1` [Example 995, N-{4-[(cyclopropylmethyl)carbamoyl]phenyl}-1-(pyridazin-3-yl)azetidine-3-carboxamide], `CCC(C)CC(=O)N1CCC(Cc2ccc(NC(=O)C3CN(c4cccnn4)C3)cc2)CC1` (stereo not drawn) [Example 964, N-(4-{[1-(3-methylpentanoyl)piperidin-4-yl]methyl}phenyl)-1-(pyridazin-3-yl)azetidine-3-carboxamide] is 130-fold lower in IC50: 245 nM for the first, 1.84 nM for the second. The second is the more potent here.

First: CC(C)(C)Cn1cc(-c2ccc(NC(=O)C3CN(c4cccnn4)C3)cn2)cn1 [Example 924, N-{6-[1-(2,2-dimethylpropyl)-1H-pyrazol-4-yl]pyridin-3-yl}-1-(pyridazin-3-yl)azetidine-3-carboxamide]
Second: CCCCCC(=O)N1CCC(Cc2ccc(NC(=O)C3CN(c4cccnn4)C3)cc2)CC1 [Example 948, N-{4-[(1-hexanoylpiperidin-4-yl)methyl]phenyl}-1-(pyridazin-3-yl)azetidine-3-carboxamide]
The IC50 of the first is 1.9-fold lower: 1.17 nM for the first, 2.26 nM for the second. The first is the more potent here.
